For assay [1], the target named is memapsin 2 (Homo sapiens, UniProt P56817). The assay is described as follows: Inhibition of memapsin 2 beta-secretase activity (fluorogenic substrate FS-2). Format: biochemical. Particulars: memapsin 2, pH 4, 37° C., 20 minutes pre-incubation; read-out: M2Ki. The procedure, abridged:
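Kinetic fluorogenic assay: hydrolysis of the MCA/DNP-labelled APP Swedish-variant peptide FS-2 monitored as fluorescence rise at 37° C, pH 4, after 20 min enzyme–compound preincubation. Relative rates fitted with a tight-binding inhibitor model.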

In assay [2] the test system is Aβ production in Chinese hamster ovary cells that over-express human APP695 with the London and Swedish mutations. Nature of the assay: Cellular Aβ IC50 determination (Aβ40 sandwich ELISA). Particulars: Cricetulus griseus. Type of assay: cell-based. In short, it runs like this: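 Aβ40 in media quantified by sandwich ELISA, normalized to control incubations and fitted with a 4-parameter IC50 model. Compounds dosed to a final concentration near 4 μM (0.4% DMSO) on CHO cells expressing human APP695 (London and Swedish mutants) seeded at 10% confluency.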

Where [3] appears, read: cellular Aβ production, read-out: IC50.

Drawing on patent US20100286145A1, “ISOPHTHALAMIDE DERIVATIVES INHIBITING BETA-SECRETASE ACTIVITY” (CoMentis, Inc., priority 2007, published 2010), this text covers Ki and IC50 for 21 compounds.

Read-outs that look alike come from different tables or passages of the source. Where only a bound is given, the exact number is not on record here.

A word on the IC50: it is the concentration needed to halve the response being measured.

Chain of memapsin 2 (P56817 46-501): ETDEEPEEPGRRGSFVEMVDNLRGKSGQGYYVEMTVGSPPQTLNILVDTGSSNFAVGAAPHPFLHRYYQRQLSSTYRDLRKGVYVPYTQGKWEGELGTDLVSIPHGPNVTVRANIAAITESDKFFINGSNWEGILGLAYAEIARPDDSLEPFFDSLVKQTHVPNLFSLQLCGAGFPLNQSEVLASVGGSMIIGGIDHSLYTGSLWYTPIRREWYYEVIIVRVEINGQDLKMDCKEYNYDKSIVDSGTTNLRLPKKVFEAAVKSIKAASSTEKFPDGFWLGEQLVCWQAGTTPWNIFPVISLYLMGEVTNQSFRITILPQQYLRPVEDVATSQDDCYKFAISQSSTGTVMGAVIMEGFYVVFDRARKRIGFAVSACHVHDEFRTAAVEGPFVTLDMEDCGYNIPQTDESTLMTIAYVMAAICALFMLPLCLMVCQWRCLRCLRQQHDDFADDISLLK

Take `Cc1csc(CN(C)C(=O)c2cccc(C(=O)N[C@@H](Cc3ccccc3)[C@H](O)CN[C@@H](C)c3cncc(C(C)C)c3)c2)n1` [Compound 182, N1-((2S,3R)-3-hydroxy-4-((S)-1-(5-isopropylpyridin-3-yl)ethylamino)-1-phenylbutan-2-yl)-N3-methyl-N3-((4-methylthiazol-2-yl)methyl)isophthalamide]: the Ki in assay [1] is under 0.3 µM. In addition, the concentration for half-maximal inhibition (IC50) in assay [2] (setting [3]) was under 1 µM.
The like results for `Cc1csc(CN(C)C(=O)c2cccc(C(=O)N[C@@H](Cc3cscn3)[C@H](O)CNCc3cncc(C(C)C)c3)c2)n1` [Compound 183, N1-((2S,3R)-3-hydroxy-4-((5-isopropylpyridin-3-yl)methylamino)-1-(thiazol-4-yl)butan-2-yl)-N3-methyl-N3-((4-methylthiazol-2-yl)methyl)isophthalamide] were, in that order, 0.301 to 0.5 µM and 1 to 5 µM.
The matching figures for `Cc1csc(CN(C)C(=O)c2cccc(C(=O)N[C@@H](Cc3ccccc3)[C@H](O)CNCc3cccc(C(C)(C)O)c3)c2)n1` [Compound 184, N1-((2S,3R)-3-hydroxy-4-(3-(2-hydroxypropan-2-yl)benzylamino)-1-phenylbutan-2-yl)-N3-methyl-N3-((4-methylthiazol-2-yl)methyl)isophthalamide]: under 0.3 µM and under 1 µM.
In the case of `Cc1csc(CN(C)C(=O)c2cccc(C(=O)N[C@@H](Cc3ccccc3)[C@H](O)CNCc3cc(N(C)C)cc(N(C)C)c3)c2)n1` [Compound 185, N1-((2S,3R)-4-(3,5-bis(dimethylamino)benzylamino)-3-hydroxy-1-phenylbutan-2-yl)-N3-methyl-N3-((4-methylthiazol-2-yl)methyl)isophthalamide], the Ki in assay [1] was under 0.3 µM. The IC50 in assay [2] (setting [3]) is under 1 µM.
The like results for `Cc1csc(CN(C(=O)c2cc(C(=O)N[C@@H](Cc3ccccc3)[C@H](O)CNCc3cncc(C(C)C)c3)cc(-c3ncco3)c2)C2CC2)n1` [Compound 186, N1-cyclopropyl-N3-((2S,3R)-3-hydroxy-4-((5-isopropylpyridin-3-yl)methylamino)-1-phenylbutan-2-yl)-N1-((4-methylthiazol-2-yl)methyl)-5-(oxazol-2-yl)isophthalamide] were, in that order, under 0.3 µM and under 1 µM.
The matching figures for `COc1cccc(CNC[C@@H](O)[C@H](Cc2ccccc2)NC(=O)c2cc(C(=O)NCc3nc(C)cs3)cc(N3CCCC3)c2)c1` [Compound 187, N1-((2S,3R)-3-hydroxy-4-(3-methoxybenzylamino)-1-phenylbutan-2-yl)-N3-((4-methylthiazol-2-yl)methyl)-5-(pyrrolidin-1-yl)isophthalamide]: under 0.3 µM and over 5 µM.
As for `CCS(=O)(=O)c1cc(CNC[C@@H](O)[C@H](Cc2ccccc2)NC(=O)c2cccc(C(=O)N(C)Cc3nc(C)cs3)c2)cc(C(C)C)c1` [Compound 188, N1-((2S,3R)-4-(3-(ethylsulfonyl)-5-isopropylbenzylamino)-3-hydroxy-1-phenylbutan-2-yl)-N3-methyl-N3-((4-methylthiazol-2-yl)methyl)isophthalamide], in assay [1], the Ki is under 0.3 µM. Further, in assay [2] (setting [3]), the IC50 is under 1 µM.
With `COc1cccc(CNC[C@@H](O)[C@H](Cc2ccccc2)NC(=O)c2cc(C(=O)N(C)Cc3nc(C)cs3)cc(-c3cccnc3)c2)c1` [Compound 189, N1-((2S,3R)-3-hydroxy-4-(3-methoxybenzylamino)-1-phenylbutan-2-yl)-N3-methyl-N3-((4-methylthiazol-2-yl)methyl)-5-(pyridin-3-yl)isophthalamide], in assay [1], the Ki was under 0.3 µM. In assay [2] (setting [3]), the IC50 is under 1 µM.
The like results for `Cc1csc(CN(C)C(=O)c2cccc(C(=O)N[C@@H](Cc3ccccc3)[C@H](O)CNCc3cncc(C(C)(C)C)c3)c2)n1` [Compound 190, N1-((2S,3R)-4-((5-tert-butylpyridin-3-yl)methylamino)-3-hydroxy-1-phenylbutan-2-yl)-N3-methyl-N3-((4-methylthiazol-2-yl)methyl)isophthalamide] were, in that order, under 0.3 µM and under 1 µM.
The matching figures for `Cc1csc(CN(C)C(=O)c2cccc(C(=O)N[C@@H](Cc3ccccc3)[C@H](O)CNCc3cccc(N)c3)c2)n1` [Compound 191, N1-((2S,3R)-4-(3-aminobenzylamino)-3-hydroxy-1-phenylbutan-2-yl)-N3-methyl-N3-((4-methylthiazol-2-yl)methyl)isophthalamide]: over 0.501 µM and over 5 µM.
The like results for `Cc1csc(CN(C)C(=O)c2cc(CO)cc(C(=O)N[C@@H](Cc3ccccc3)[C@H](O)CNCc3cncc(C(C)C)c3)c2)n1` [Compound 192, N1-((2S,3R)-3-hydroxy-4-((5-isopropylpyridin-3-yl)methylamino)-1-phenylbutan-2-yl)-5-(hydroxymethyl)-N3-methyl-N3-((4-methylthiazol-2-yl)methyl)isophthalamide] were, in that order, under 0.3 µM and under 1 µM.
Regarding `CC(=O)Nc1cc(CNC[C@@H](O)[C@H](Cc2ccccc2)NC(=O)c2cccc(C(=O)N(C)Cc3nc(C)cs3)c2)cc(C(C)C)c1` [Compound 193, N1-((2S,3R)-4-(3-acetamido-5-isopropylbenzylamino)-3-hydroxy-1-phenylbutan-2-yl)-N3-methyl-N3-((4-methylthiazol-2-yl)methyl)isophthalamide], the Ki in assay [1] is under 0.3 µM. Also, the IC50 in assay [2] (setting [3]) is under 1 µM.
Consider `COc1cccc(CNC[C@@H](O)[C@H](Cc2ccccc2)NC(=O)c2cc(C(=O)N(C)Cc3nc(C)cs3)cc(N3CCCC3=O)c2)c1` [Compound 194, N1-((2S,3R)-3-hydroxy-4-(3-methoxybenzylamino)-1-phenylbutan-2-yl)-N3-methyl-N3-((4-methylthiazol-2-yl)methyl)-5-(2-oxopyrrolidin-1-yl)isophthalamide], for which, in assay [1], the Ki was under 0.3 µM. Further, the IC50 in assay [2] (setting [3]) was under 1 µM.
The like results for `Cc1csc(CN(C)C(=O)c2cc(C(=O)N[C@@H](Cc3ccccc3)[C@H](O)CNCc3cncc(C(C)C)c3)cc(N3CCCC3=O)c2)n1` [Compound 195, N1-((2S,3R)-3-hydroxy-4-((5-isopropylpyridin-3-yl)methylamino)-1-phenylbutan-2-yl)-N3-methyl-N3-((4-methylthiazol-2-yl)methyl)-5-(2-oxopyrrolidin-1-yl)isophthalamide] were, in that order, under 0.3 µM and under 1 µM.
`Cc1csc(CN(C)C(=O)c2cccc(C(=O)N[C@@H](Cc3ccccc3)[C@H](O)CNCc3cc(-c4ccccc4)on3)c2)n1` [Compound 196, N1-((2S,3R)-3-hydroxy-1-phenyl-4-((5-phenylisoxazol-3-yl)methylamino)butan-2-yl)-N3-methyl-N3-((4-methylthiazol-2-yl)methyl)isophthalamide]: the Ki in assay [1] is under 0.3 µM. Further, the IC50 in assay [2] (setting [3]) was under 1 µM.
Take `Cc1csc(CNC(=O)c2cc(C(=O)N[C@@H](Cc3ccccc3)[C@H](O)CNCc3cncc(C(C)C)c3)cc(-c3ncco3)c2)n1` [Compound 197, N1-((2S,3R)-3-hydroxy-4-((5-isopropylpyridin-3-yl)methylamino)-1-phenylbutan-2-yl)-N3-((4-methylthiazol-2-yl)methyl)-5-(oxazol-2-yl)isophthalamide]: in assay [1], the Ki was under 0.3 µM. The IC50 in assay [2] (setting [3]) was under 1 µM.
Take `Cc1csc(CN(C)C(=O)c2cccc(C(=O)N[C@@H](Cc3ccccc3)[C@H](O)CNCc3cc(OC(=O)N(C)C)cc(C(C)C)c3)c2)n1` [Compound 198, 3-(((2R,3S)-2-hydroxy-3-(3-(methyl((4-methylthiazol-2-yl)methyl)carbamoyl)benzamido)-4-phenylbutylamino)methyl)-5-isopropylphenyl dimethylcarbamate]: in assay [1], the Ki was under 0.3 µM. Besides, the concentration for half-maximal inhibition (IC50) in assay [2] was under 1 µM.
Take `COc1cccc(CNC[C@@H](O)[C@H](Cc2ccccc2)NC(=O)c2cc(C(=O)NCc3nc(C)cs3)cc(N3CCCC3=O)c2)c1` [Compound 199, N1-((2S,3R)-3-hydroxy-4-(3-methoxybenzylamino)-1-phenylbutan-2-yl)-N3-((4-methylthiazol-2-yl)methyl)-5-(2-oxopyrrolidin-1-yl)isophthalamide]: in assay [1], the Ki was over 0.501 µM. Besides, the IC50 in assay [2] (setting [3]) was over 5 µM.
As to `Cc1csc(CN(C)C(=O)c2cc(C(=O)N[C@@H](Cc3ccccc3)[C@H](O)CNCc3cncc(C(C)C)c3)cc(-c3cccnc3)c2)n1` [Compound 200, N1-((2S,3R)-3-hydroxy-4-((5-isopropylpyridin-3-yl)methylamino)-1-phenylbutan-2-yl)-N3-methyl-N3-((4-methylthiazol-2-yl)methyl)-5-(pyridin-3-yl)isophthalamide], in assay [1], the Ki is under 0.3 µM. The IC50 in assay [2] (setting [3]) was under 1 µM.
The matching figures for `COc1cccc([C@@H](C)NC[C@@H](O)[C@H](Cc2ccccc2)NC(=O)c2cc(C(=O)N[C@H](C)c3ccccc3)cc(N(C)S(C)(=O)=O)c2)c1` [Compound 201, N1-((2S,3R)-3-hydroxy-4-((R)-1-(3-methoxyphenyl)ethylamino)-1-phenylbutan-2-yl)-5-(N-methylmethylsulfonamido)-N3-((R)-1-phenylethyl)isophthalamide]: under 0.3 µM and under 1 µM.
With `COC(=O)Nc1cc(CNC[C@@H](O)[C@H](Cc2ccccc2)NC(=O)c2cccc(C(=O)N(C)Cc3nc(C)cs3)c2)cc(C(C)C)c1` [Compound 202, methyl 3-(((2R,3S)-2-hydroxy-3-(3-(methyl((4-methylthiazol-2-yl)methyl)carbamoyl)benzamido)-4-phenylbutylamino)methyl)-5-isopropylphenylcarbamate], the Ki in assay [1] was under 0.3 µM. Moreover, the IC50 in assay [2] (setting [3]) is under 1 µM.
